Tested on: Glaucoma patients
Test: Clinical study: subtenon injection of MMC versus MMC-soaked sponges in trabeculectomy
Description: A clinical study was set up to compare the efficacy and safety of subtenon injection of mitomycin C (MMC) using the instant injection system and kits, with that of conventional application of MMC-soaked sponges in trabeculectomy. Glaucoma patients were randomized into two groups; group 1 received a subtenon injection of 0.1 mL of 0.01% MMC by the second sterile syringe, while group 2 received 0.02% MMC-soaked Weck-Cel® sponges to physically disperse the MMC. The injection was placed in the far posterior fornix on a 30-gauge needle prior to the conjunctival peritomy for trabeculectomy. Primary outcome measure is intraocular pressure (IOP), and secondary outcome measures are endothelial cell count (ECC) changes and bleb morphology according to the Indiana Bleb Appearance Grading Scale. Outcome measures were compared at 1, 3 and 6 months postoperatively. Complete and qualified success was defined as IOP within 6-15 mm Hg without and with medications at month 6, respectively.
Data was to be presented in the form of mean, SD, median and range, frequency and percentage values. Normal distribution of data was assessed by Kolmogrov-Smirnov test and Q-Q plot. To evaluate differences between the study groups, χ2, t-test and Mann-Whitney tests. Wilcoxon singed-rank test and the linear mixed model were used to assess changes within the study groups. The Wilcoxon singed-rank test is followed by Bonferroni correction to consider multiple comparisons. To compare the groups adjusted for baseline values, analysis of covariance and Poisson regression (based on the type of response) were used. All statistical analyses were performed using SPSS software (IBM SPSS Statistics for Windows, V. 23.0, Released 2014, IBM, Armonk, New York, USA). All tests were two-sided and p values less than 0.05 were considered statistically significant.

CO[C@@]12[C@H](COC(N)=O)C3=C(C(=O)C(C)=C(N)C3=O)N1C[C@@H]1N[C@@H]12 [MMC, mitomycin C]
dependence on glaucoma medications (MMC injection compared to cellulose sponge delivery, trabeculectomy): decreased | bleb morphology (Indiana Bleb Appearance Grading Scale) (MMC injection compared to trabeculectomies performed with sponges): more favorable | overall study conclusion for MMC injection versus sponge delivery (MMC injection through the instant apparatus and kits): non-inferiority with improved predictability | intraocular pressure (IOP) (subtenon injection of 0.1 mL of 0.01% MMC compared to 0.02% MMC-soaked cellulose sponges, trabeculectomy, 1, 3 and 6 months postoperatively): lower

From patent publication US12629319B2, “Injection apparatus and method of use” (MOBIUS THERAPEUTICS, INC., priority 2020, dated 2026)
